Experimental data reported in US8222264B2, “Substituted amino-quinazolinones, medicaments comprising said compound, their use and their method of manufacture” (Boehringer Ingelheim International GmbH, priority 2007, dated 2012).

Each compound was assayed against T1, β-secretase (ectodomain of BACE, amino acids 1-454) (Homo sapiens, UniProt P56817) (assay: β-secretase activity assay, fluorescence-quenched Cy3/Cy5Q peptide substrate). Settings: 100 μM test compound; positive control minus negative control = 100%; values above 100% adjusted to 100%.
T1 construct: poly-histidine; made in house; host or cells: HEK293/APP/BACEect. cells; unpurified culture supernatant in OptiMEM used as enzyme source
Type: biochemical
Description: To calculate the IC50 value of a substance different amounts of substance are incubated with the β-secretase in an assay. The IC50 value of a compound is defined as the concentration of substance at which a 50% reduction in the detected signal is measured, compared with the mixture without the test compound. Substances are evaluated as inhibiting β-secretase if under these conditions their IC50 value is less than 50 μM, preferably less than 10 μM and particularly preferably less than 1 μM.
In detail, an assay for detecting β-secretase activity may be as follows: The ectodomain of BACE (amino acids 1-454) fused to the recognition sequence for an anti-Myc antibody and a poly-histidine is secreted overnight by HEK293/APP/BACEect. cells in OptiMEM® (Invitrogen). A 10 μl aliquot of this cell culture supernatant is used as the enzyme source. The enzyme is stable over more than 3 months' storage at 4° C. or −20° C. in OptiMEM®. The substrate used is a peptide with the amino acid sequence SEVNLDAEFK, to which the Cy3 fluorophore (Amersham) is coupled N-terminally and the Cy5Q fluorophore (Amersham) is coupled C-terminally. The substrate is dissolved in DMSO in a concentration of 1 mg/ml and used in the experiment in a concentration of 1 μM. The test mixture also contains 20 mM NaOAc, pH 4.4 and a maximum of 1% DMSO. The test is carried out in a 96-well plate in a total volume of 200 μl for 30 minutes at 30° C. The cleaving of the substrate is recorded kinetically in a fluorimeter (ex: 530 nm, em: 590 nm). The assay is started by adding the substrate.
Mixtures without enzyme (i.e. negative control) or without inhibitor (i.e. positive control) are included in each plate as controls.
The activity of the positive control (minus the negative control=background) is set to 100% and activity in the presence of test compound is expressed relative to these 100%. […]
IC50 can be calculated with Graph Pad Prism or other suited software setting the positive control minus the negative control as 100. […]

T1 sequence (P56817 22-454): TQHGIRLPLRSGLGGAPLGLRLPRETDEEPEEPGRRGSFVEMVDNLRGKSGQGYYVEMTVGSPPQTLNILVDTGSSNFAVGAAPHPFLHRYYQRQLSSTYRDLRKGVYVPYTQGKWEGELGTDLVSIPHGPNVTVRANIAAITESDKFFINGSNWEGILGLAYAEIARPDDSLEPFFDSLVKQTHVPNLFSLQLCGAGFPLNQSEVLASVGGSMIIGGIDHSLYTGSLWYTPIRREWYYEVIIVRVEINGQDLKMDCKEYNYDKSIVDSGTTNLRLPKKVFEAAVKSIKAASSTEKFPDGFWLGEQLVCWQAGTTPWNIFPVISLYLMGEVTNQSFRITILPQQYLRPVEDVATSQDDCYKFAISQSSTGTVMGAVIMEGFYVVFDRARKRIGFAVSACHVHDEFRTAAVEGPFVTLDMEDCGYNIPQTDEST

Row | inhibition at 100 µM | SMILES
1 | 81% | CCOc1ccccc1-c1ccc2nc(N)n(C(CCC(=O)N(C)C3CCCCC3)C3CCCCC3)c(=O)c2c1 (stereo not drawn) [Example 2]
2 | 98% | CN(C(=O)CC[C@@H](C1CCCCC1)n1c(N)nc2ccc(Oc3ccccc3)cc2c1=O)C1CCCCC1 [Example 1]
3 | 91% | CN(C(=O)CCC(C1CCCCC1)n1c(N)nc2ccc(Br)cc2c1=O)C1CCCCC1 (stereo not drawn) [Example 3]
